The text below walks through data of publication PMC7516806, “Hybrid Antimicrobial Peptide Targeting Staphylococcus aureus and Displaying Anti-infective Activity in a Murine Model” (Frontiers in Microbiology, 2020).

The subject of one experiment is E. coli 25922. The experiment in a line: MIC, modified microtiter dilution. The conditions noted are these: MHB, 2–7 × 10^5 CFU/ml, 37°C, 24 h, lowest concentration with no turbidity, at least three independent repeats. The format is cell-based, Escherichia coli. From the text: (§1) The experiment was repeated at least three times independently.
For the next experiment, the system named is E. coli UB1005. Nature of the experiment: MIC, modified microtiter dilution. Type of experiment: cell-based, Escherichia coli. To be noted: MHB, 2–7 × 10^5 CFU/ml, 37°C, 24 h, no turbidity, at least three independent repeats.
Description: as §1

The test system of a further experiment is E. coli K88. To be noted: MHB, 2–7 × 10^5 CFU/ml, 37°C, 24 h, no turbidity, at least three independent repeats. A digest of the protocol: (§2)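 MIC values come from at least three independent experiments, each incubating peptide serial dilutions (made in 0.01% acetic acid plus 0.2% BSA) with an equal volume of bacteria at 2–7 × 10^5 CFU/ml in Mueller-Hinton broth for 24 h at 37°C.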

The subject of another experiment is E. coli K99. The conditions noted are these: MHB, 2–7 × 10^5 CFU/ml, 37°C, 24 h, no turbidity, at least three independent repeats. A digest of the protocol:
as §2

The next experiment relates to S. typhimurium 14028. The experiment in a line: MIC, modified microtiter dilution. The format is cell-based, Salmonella typhimurium. To be noted: MHB, 2–7 × 10^5 CFU/ml, 37°C, 24 h, no turbidity, at least three independent repeats.
Description: as §1

The test system of a further experiment is S. typhimurium 7731. Nature of the experiment: MIC, modified microtiter dilution. To be noted: MHB, 2–7 × 10^5 CFU/ml, 37°C, 24 h, no turbidity, at least three independent repeats. Type of experiment: cell-based, Salmonella typhimurium.
Description: as §1

The test system of another experiment is L. plantarum 8014. Nature of the experiment: MIC, modified microtiter dilution. Type of experiment: cell-based, Lactobacillus plantarum. To be noted: 2–7 × 10^5 CFU/ml, 37°C, 24 h, no turbidity, at least three independent repeats.
Description: as §1

A further experiment has as its system L. rhamnosus 1.0385. The experiment in a line: MIC, modified microtiter dilution. To be noted: 2–7 × 10^5 CFU/ml, 37°C, 24 h, no turbidity, at least three independent repeats. The format is cell-based, Lactobacillus rhamnosus.
Description: as §1

For a further experiment, the system named is L. rhamnosus 1.0911. Nature of the experiment: MIC, modified microtiter dilution. The format is cell-based, Lactobacillus rhamnosus. The conditions noted are these: 2–7 × 10^5 CFU/ml, 37°C, 24 h, no turbidity, at least three independent repeats.
Description: as §1

A further experiment relates to L. rhamnosus 1.0936. Nature of the experiment: MIC, modified microtiter dilution. Type of experiment: cell-based, Lactobacillus rhamnosus. The conditions noted are these: 2–7 × 10^5 CFU/ml, 37°C, 24 h, no turbidity, at least three independent repeats.
Description: as §1

Another experiment concerns L. rhamnosus 7469. Nature of the experiment: MIC, modified microtiter dilution. To be noted: 2–7 × 10^5 CFU/ml, 37°C, 24 h, no turbidity, at least three independent repeats. The format is cell-based, Lactobacillus rhamnosus.
Description: as §1

The next experiment has as its system S. aureus ATCC 29213. Nature of the experiment: Time-dependent killing kinetics. The format is cell-based, Staphylococcus aureus. The conditions noted are these: six independent trials. The procedure:
The logarithmic phase S. aureus ATCC 29213 cells were harvested by centrifugation at 1000 × g for 5 min, washed twice with PBS, and diluted to 2–7 × 10^5 CFU/mL. S. aureus was treated with AMPs at various concentrations, including 0.125, 0.25, 0.5, 1, and 2 × MIC. At various time intervals (5 s, 10 s, 30 s, 1 min, 5 min, 10 min, and 30 min), 50 μL of bacterial solution was diluted and plated on MHA plates. Bacterial colonies were counted after 24 h of incubation at 37°C. The results were carried out in six independent trials.

In another experiment the test system is GM-CSF. The experiment in a line: Cytokine ELISA in infected skin. The format is in vivo, ICR mice. The conditions noted are these: 24 h after treatment, P < 0.05. The procedure:
(§3) To assess the antimicrobial activity of the peptide in vivo, a mouse model of subcutaneous infection was used ([Huang et al., 2011a]; [Omolo et al., 2017]). Female Institute for Cancer Research (ICR) mice (SPF, 20–25 g) were purchased from WeiTonglihua Co., Ltd. (Beijing, China), with eight animals per group. The mice were shaved on their backs and disinfected. S. aureus 29213 (100 μL) at a concentration of 1 × 10^8 CFU/mL was injected into the superficial skin of the mice. The mice were divided into four groups (n = 4), as follows: S. aureus + saline, S. aureus + S2 (80× MIC, 100 μL), S. aureus + vancomycin (Van) (80× MIC, 100 μL), and saline. S2, vancomycin, and saline were injected at the same site 1 h after infection. The mice were monitored over 24 h in an environmentally controlled room at 25 ± 1°C and 55 ± 5% relative humidity with a 12 h light/dark cycle.
(§4) The mice were treated as described above. Skin samples were treated according to the manufacturer’s instructions. The levels of tumor necrosis factor-alpha (TNF-α), interleukin-6 (IL-6), and granulocyte-macrophage colony-stimulating factor (GM-CSF) in infected skin were measured using enzyme-linked immunosorbent assay (ELISA) kits following the manufacturer’s instructions.
(In general: In an ELISA, binding on a coated surface is turned into a signal by an enzyme label.)

The next experiment has as its system IL-6. Nature of the experiment: Cytokine ELISA in infected skin. The conditions noted are these: 24 h after treatment, P < 0.05. Type of experiment: in vivo, ICR mice. As to the method: as §3, §4
The test system of a further experiment is TNF-α. The experiment in a line: Cytokine ELISA in infected skin. The format is in vivo, ICR mice. To be noted: 24 h after treatment, P < 0.05. The procedure: as §3, §4
For the next experiment, the system named is S. aureus 29213. Nature of the experiment: Histology (HE) of infected skin tissue. Type of experiment: in vivo, ICR mice. To be noted: 24 h after injection of S. aureus. As to the method:
as §3
To image the infected skin tissues, the mice were euthanized 24 h after the injection of S. aureus. Samples were fixed in 4% buffered paraformaldehyde and subjected to hematoxylin/eosin (HE) staining. The antimicrobial activity in vivo was determined by colony counting of infected skin samples. Skin homogenates were serially diluted in saline and incubated at 37°C for 24 h.

Positions of bridges follow the written chain, without caps; N, C: chain ends. Residues, ends and D or L forms follow the SMILES beside them.

In the case of `CC(C)C[C@H](NC(=O)[C@H](CC(C)C)NC(=O)[C@H](Cc1c[nH]c2ccccc12)NC(=O)[C@H](Cc1c[nH]c2ccccc12)NC(=O)[C@H](Cc1c[nH]c2ccccc12)NC(=O)[C@H](CCCNC(=N)N)NC(=O)[C@@H]1CSSC[C@H](N)C(=O)N[C@@H](C)C(=O)N[C@@H](CO)C(=O)N[C@@H](Cc2ccc(O)cc2)C(=O)N[C@@H](Cc2ccccc2)C(=O)N1)C(N)=O` [Peptide S2] (H-CASYFCRWWWLL-NH2; disulfide 1-6; N-terminus assumed), the “MIC E. coli 25922” value in the experiment on E. coli 25922 is over 64 µM. In addition, in the experiment with E. coli UB1005, the “MIC E. coli UB1005” value is over 64 µM. The “MIC E. coli K88” value with E. coli K88 was over 64 µM. Further, the “MIC E. coli K99” value in the experiment with E. coli K99 was over 64 µM. The “MIC S. typhimurium 14028” value against S. typhimurium 14028 is over 64 µM. Besides, in the experiment with S. typhimurium 7731, the “MIC S. typhimurium 7731” value is over 64 µM. Further, the “MIC L. plantarum 8014” value with L. plantarum 8014 was over 64 µM. Also, the “MIC L. rhamnosus 1.0385” value against L. rhamnosus 1.0385 was over 64 µM. Besides, the “MIC L. rhamnosus 1.0911” value against L. rhamnosus 1.0911 is over 64 µM. Moreover, the “MIC L. rhamnosus 1.0936” value with L. rhamnosus 1.0936 was over 64 µM. Also, the “MIC L. rhamnosus 7469” value against L. rhamnosus 7469 was over 64 µM. For the same molecule, the “bacterial reduction in S. aureus” value with S. aureus ATCC 29213 (0.5 × MIC, after 5 s of exposure, PBS, 2–7 × 10^5 CFU/mL) turned out to be 2 log10. Further, the “time of peptide exposure for 100% bacterial killing” value is 30 s with S. aureus ATCC 29213 (at 2 × MIC) and 60 s in the experiment on S. aureus ATCC 29213 (at MIC). Also, the “GM-CSF levels in infected skin versus control group and Van group” value in the experiment with GM-CSF was “significantly higher”. The “IL-6 generation in infected skin” value in the experiment on IL-6 was “suppressed”. Besides, the “TNF-α generation in infected skin” value in the experiment with TNF-α is given as “suppressed”. Also, in the experiment on S. aureus 29213, the “histomorphological changes of skin tissue (HE)” value is reported as “good recovery”.
